Experimental data from ChEMBL document CHEMBL1201862, “PubChem BioAssay data set” (2004).
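Cultured in 96-well plates, cells were exposed to test compound for 48 hours across five concentrations. GI50 is the concentration that inhibits growth by half.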 Activity calls are given as the source filed them. No stated cut-off is given here; in the data, active = GI50 up to about 1.1 µM and inactive = higher.

Assays:
Assay in all cases: NCI-60 cell line screen, 48 h
786-0 = tested on: 786-0
A549 = tested on: A549
ACHN = tested on: ACHN
DU-145 = tested on: DU-145
EKVX = tested on: EKVX
HCT-116 = tested on: HCT-116
HOP-92 = tested on: HOP-92
HT-29 = tested on: HT-29
Hs-578T = tested on: Hs-578T
K562 = tested on: K562
MDA-N = tested on: MDA-N
MOLT-4 = tested on: MOLT-4
Malme-3M = tested on: Malme-3M
NCI/ADR-RES = tested on: NCI/ADR-RES
OVCAR-3 = tested on: OVCAR-3
SK-MEL-28 = tested on: SK-MEL-28
SK-MEL-2 = tested on: SK-MEL-2
UACC-62 = tested on: UACC-62
UO-31 = tested on: UO-31

O=C1OS2(OC(=O)c3cccc4cccc2c34)c2ccccc21 (configuration not stated)
GI50 (786-0): > 100 µM (inactive)
GI50 (A549): > 100 µM (inactive)
GI50 (ACHN): > 100 µM (inactive)
GI50 (DU-145): > 100 µM (inactive)
GI50 (EKVX): > 100 µM (inactive)
GI50 (HCT-116): > 100 µM (inactive)
GI50 (HOP-92): > 100 µM (inactive)
GI50 (HT-29): > 100 µM (inactive)
GI50 (Hs-578T): > 100 µM (inactive)
GI50 (K562): > 100 µM (inactive)
GI50 (MDA-N): > 100 µM (inactive)
GI50 (MOLT-4): > 100 µM (inactive)
GI50 (Malme-3M): > 100 µM (inactive)
GI50 (NCI/ADR-RES): > 100 µM (inactive)
GI50 (OVCAR-3): > 100 µM (inactive)
GI50 (SK-MEL-28): > 100 µM (inactive)
GI50 (SK-MEL-2): > 100 µM (inactive)
GI50 (UACC-62): > 10 µM (inactive)
GI50 (UO-31): > 100 µM (inactive)

CCOP(=O)(CC1CC(O)(CNc2cc(Cl)nc(N)n2)C1)OCC (configuration not stated)
GI50 (786-0): > 100 µM (inactive)
GI50 (A549): > 100 µM (inactive)
GI50 (ACHN): > 100 µM (inactive)
GI50 (DU-145): > 100 µM (inactive)
GI50 (EKVX): > 100 µM (inactive)
GI50 (HCT-116): > 100 µM (inactive)
GI50 (HOP-92): > 100 µM (inactive)
GI50 (HT-29): > 100 µM (inactive)
GI50 (Hs-578T): > 100 µM (inactive)
GI50 (K562): > 100 µM (inactive)
GI50 (MDA-N): > 100 µM (inactive)
GI50 (MOLT-4): > 100 µM (inactive)
GI50 (Malme-3M): > 100 µM (inactive)
GI50 (NCI/ADR-RES): > 100 µM (inactive)
GI50 (OVCAR-3): > 100 µM (inactive)
GI50 (SK-MEL-28): > 100 µM (inactive)
GI50 (SK-MEL-2): > 100 µM (inactive)
GI50 (UACC-62): > 100 µM (inactive)
GI50 (UO-31): > 100 µM (inactive)

c1cncc(CSc2ncnc3[nH]cnc23)c1
GI50 (786-0): > 100 µM (inactive)
GI50 (A549): > 100 µM (inactive)
GI50 (ACHN): > 100 µM (inactive)
GI50 (DU-145): > 100 µM (inactive)
GI50 (EKVX): > 100 µM (inactive)
GI50 (HCT-116): > 100 µM (inactive)
GI50 (HOP-92): > 100 µM (inactive)
GI50 (HT-29): > 100 µM (inactive)
GI50 (Hs-578T): > 100 µM (inactive)
GI50 (K562): > 100 µM (inactive)
GI50 (MDA-N): > 100 µM (inactive)
GI50 (MOLT-4): > 100 µM (inactive)
GI50 (Malme-3M): > 100 µM (inactive)
GI50 (NCI/ADR-RES): > 100 µM (inactive)
GI50 (OVCAR-3): > 100 µM (inactive)
GI50 (SK-MEL-28): > 100 µM (inactive)
GI50 (SK-MEL-2): > 100 µM (inactive)
GI50 (UACC-62): > 100 µM (inactive)
GI50 (UO-31): > 100 µM (inactive)

O=C1C(NS(=O)(=O)c2ccccc2)=C(N(Cc2ccccc2)Cc2ccccc2)C(=O)c2ccccc21
GI50 (786-0): 49.3 µM (inactive)
GI50 (A549): 33 µM (inactive)
GI50 (ACHN): 44.1 µM (inactive)
GI50 (DU-145): 48.1 µM (inactive)
GI50 (EKVX): 53.7 µM (inactive)
GI50 (HCT-116): 36.7 µM (inactive)
GI50 (HOP-92): 36.3 µM (inactive)
GI50 (HT-29): 60.3 µM (inactive)
GI50 (Hs-578T): 81.3 µM (inactive)
GI50 (K562): 31.1 µM (inactive)
GI50 (MDA-N): 64.6 µM (inactive)
GI50 (MOLT-4): 21.1 µM (inactive)
GI50 (Malme-3M): 0.273 µM (active)
GI50 (NCI/ADR-RES): 38.5 µM (inactive)
GI50 (OVCAR-3): 30.4 µM (inactive)
GI50 (SK-MEL-28): 40.9 µM (inactive)
GI50 (SK-MEL-2): 20.8 µM (inactive)
GI50 (UACC-62): 33.4 µM (inactive)
GI50 (UO-31): 19.2 µM (inactive)

COC(=O)CCC(NC(=O)OC(C)(C)C)C(=O)NC(Cc1ccc(NC(=O)CCCC(C)=O)cc1)C(=O)NC(CCC(=O)OC)C(=O)OC (configuration not stated)
GI50 (786-0): > 100 µM (inactive)
GI50 (A549): > 100 µM (inactive)
GI50 (ACHN): > 100 µM (inactive)
GI50 (DU-145): > 100 µM (inactive)
GI50 (EKVX): > 100 µM (inactive)
GI50 (HCT-116): > 100 µM (inactive)
GI50 (HOP-92): > 100 µM (inactive)
GI50 (HT-29): > 100 µM (inactive)
GI50 (Hs-578T): > 100 µM (inactive)
GI50 (K562): > 100 µM (inactive)
GI50 (MDA-N): > 100 µM (inactive)
GI50 (MOLT-4): > 100 µM (inactive)
GI50 (Malme-3M): > 100 µM (inactive)
GI50 (NCI/ADR-RES): > 100 µM (inactive)
GI50 (OVCAR-3): > 100 µM (inactive)
GI50 (SK-MEL-28): > 100 µM (inactive)
GI50 (SK-MEL-2): > 100 µM (inactive)
GI50 (UACC-62): > 100 µM (inactive)
GI50 (UO-31): > 100 µM (inactive)

Nc1nnnn1NC(=O)NCCCl
GI50 (786-0): > 10 µM (inactive)
GI50 (A549): > 10 µM (inactive)
GI50 (ACHN): > 10 µM (inactive)
GI50 (DU-145): > 10 µM (inactive)
GI50 (EKVX): > 10 µM (inactive)
GI50 (HCT-116): > 10 µM (inactive)
GI50 (HOP-92): > 10 µM (inactive)
GI50 (HT-29): > 10 µM (inactive)
GI50 (Hs-578T): > 10 µM (inactive)
GI50 (K562): > 10 µM (inactive)
GI50 (MDA-N): > 10 µM (inactive)
GI50 (MOLT-4): > 10 µM (inactive)
GI50 (Malme-3M): > 10 µM (inactive)
GI50 (NCI/ADR-RES): > 10 µM (inactive)
GI50 (OVCAR-3): > 10 µM (inactive)
GI50 (SK-MEL-28): > 10 µM (inactive)
GI50 (SK-MEL-2): > 10 µM (inactive)
GI50 (UACC-62): > 10 µM (inactive)
GI50 (UO-31): > 10 µM (inactive)

O=c1c2cc([N+](=O)[O-])ccc2oc2nc3n(c(=O)c12)CCCS3
GI50 (786-0): 66.8 µM (inactive)
GI50 (A549): > 100 µM (inactive)
GI50 (ACHN): > 100 µM (inactive)
GI50 (DU-145): > 100 µM (inactive)
GI50 (EKVX): > 100 µM (inactive)
GI50 (HCT-116): > 100 µM (inactive)
GI50 (HOP-92): > 100 µM (inactive)
GI50 (Hs-578T): 56.1 µM (inactive)
GI50 (K562): > 100 µM (inactive)
GI50 (MDA-N): > 100 µM (inactive)
GI50 (MOLT-4): > 100 µM (inactive)
GI50 (Malme-3M): > 100 µM (inactive)
GI50 (NCI/ADR-RES): > 100 µM (inactive)
GI50 (OVCAR-3): > 100 µM (inactive)
GI50 (SK-MEL-28): > 100 µM (inactive)
GI50 (SK-MEL-2): > 100 µM (inactive)
GI50 (UACC-62): > 100 µM (inactive)
GI50 (UO-31): > 100 µM (inactive)
